Test results reported in patent US12351597B2, “Substituted biphenyl or phenylheteroaryl-mannosides as antagonists of FimH” (GLAXOSMITHKLINE INTELLECTUAL PROPERTY DEVELOPMENT LIMITED, priority 2019, dated 2025).

Columns and labels:
[1] = molecular target: T1, FimH (Escherichia coli, UniProt Q1R2J4); assay: Hemagglutination inhibition assay (HAI); assay type: cell-based; conditions: HAI titer / EC>90: concentration reducing bacterial agglutination of guinea pig red blood cells by >90%; UTI89 bacteria
T1 construct: endogenous in cells; host or cells: E. coli UTI89 whole bacteria (piliated), with guinea pig red blood cells
Excerpt: “HAI titer or EC>90” is that concentration of the FimH inhibitor/antagonist which reduces the bacterial agglutination of guinea pig red blood cells by greater than 90%.
The activities of the Examples 1-40 compounds above as FimH antagonists/inhibitors were obtained by the following assay(s), and values are provided in Table 1. The values not provided mean that the activities have not yet been tested.
Hemagglutination Inhibition Assay (HAI)
The hemagglutination inhibition (HAI) assay was performed with UTI89 bacteria and guinea pig red blood cells, as previously described (S. J. Hultgren, W. R. Schwan, A. J. Schaeffer, J. L. Duncan Infect. Immun. 1986, 54, 613-620 and Jarvis, C.; Han, Z.; Kalas, V.; Klein, R.; Pinkner, J. S.; Ford, B.; Binkley, J.; Cusumano, C. K.; Cusumano, Z.; Mydock-McGrane, L.; Hultgren, S. J.; Janetka, J. W., ChemMedChem 2016, 11, 367-373). Values not listed were not tested.

[2] = Rat pharmacokinetics (IV infusion 1 mg/kg, then PO 5 mg/kg; blood and urine); assay type: in vivo, Male Wistar Han rats; conditions: for PK DNAUC h * uM (DNAUC oral, dose normalized): PO 5 mg/kg, blood, AUC divided by dose in mg/kg; for bioavailability: male, Wistar Han, whole blood, oral bioavailability from dose-normalized AUC, PO 5 mg/kg vs IV infusion 1 mg/kg
Excerpt: General Assays for Obtaining AUC Oral h*μm, % F, and Ue % PO Values
Male Wistar Han rats were purchased from Vital River Laboratory Animal Technology Co. Ltd (Beijing, China). The animals were approx. 6-8 weeks old with body weights of 200-300 g on the dosing date. The animals were housed in a 12-hour light/12-hour dark cycle environment and had free access to food and water. All animals were fed prior to dosing. Studies were approved by the Pharmaron Institutional Animal Care and Use Committee (IACUC).
Test article was administered as an intravenous infusion for 1 hour (1 mg/kg) at 5 mL/kg/h. After 48 h, animals received a single oral dose (5 mg/kg, free form) at a dose volume of 10 mL/kg, respectively. Blood samples were collected at various time points after IV infusion and PO administrations. Urine samples were collected at various time points after IV infusion and PO administrations (for some compounds).
Test article was dissolved in DMSO with vortexing and sonification to obtain a stock solution. An aliquot of the stock solution was mixed with 10% HP-β-CD in saline with vortexing to obtain a solution with concentration at 0.2 mg/mL of test article.
Test article was added into 1% Methyl Cellulose with vortexing and sonication to obtain a homogeneous suspension with concentration at 0.5 mg/mL of test article.
For IV infusion (1 mg/kg) administration, blood samples were collected from each animal at 0, 0.25, 0.5, 0.75, 1, 1.08, 1.25, 1.5, 1.75, 2, 3, 5, 8, 12, 24 hour post-dose.
For PO (5 mg/kg) administration, blood samples were collected from each animal at 0, 0.25, 0.5, 1, 1.5, 2, 3, 4, 6, 8, 12, 24 hour post-dose.
Blood samples (50 μL) were collected from each animal via jugular vein. These blood samples were placed into tubes containing K2EDTA. Whole blood was mixed with same volume of water and inverted several times. The blood samples were stored at −75±15° C. until analysis.
For IV infusion (1 mg/kg) administration, urine samples were collected from each animal at 0-4, 4-8, 8-12, 12-24 hour post-dose.
For PO (5 mg/kg) administration, urine samples were collected (for some compounds) from each animal at 0-4, 4-8, 8-12, 12-24 hour post-dose.
55 μL of standards, 55 μL of QC samples or 55 μL of unknown samples (50 μL of blood or urine with 5 μL 50% acetonitrile) were mixed to 200 μL of acetonitrile containing IS (dexamethasone) to precipitate proteins. Then the samples were vortexed for 30 sec. After centrifugation at 4° C., 4700 rpm for 30 min, and 5 μL of the supernatant was injected into the LC-MS/MS system for quantitative analysis.
Test article blood and urine concentrations for each animal following IV infusion at 1 mg/kg and PO at 5 mg/kg were used to calculate pharmacokinetic parameters by employing a non-compartmental analysis (Phoenix™ WinNonlin® 7.0). The linear trapezoidal algorithm was used for AUC calculation. • AUC oral h*uM: Area under the curve (AUC) of drug concentration in blood vs. time (units: h*μM) following oral administration • DNAUC Dose normalized area under the curve is calculate by divided the area under the curve divided by the dose in the mg/kg • % F: Oral bioavailability (%) derived from the ratio of dose-normalized AUC following PO and IV administration • Ue % PO: Percentage of oral dose eliminated unchanged in urine or an estimate of that parameter generated from using the percentage of the iv dose eliminated in the urine times the oral bioavailability Production Methods: […]

OC[C@H]1O[C@H](Oc2ccc(-c3cnc(C(F)(F)F)cn3)cc2C(F)(F)F)[C@@H](O)[C@@H](O)[C@@H]1O [Example 3, (2R,3S,4S,5S,6R)-2-(Hydroxymethyl)-6-(2-(trifluoromethyl)-4-(5-(trifluoromethyl)pyrazin-2-yl)phenoxy)tetrahydro-2H-pyran-3,4,5-triol]
HAI nM [1]: “+++” (50-200)
PK DNAUC h * uM (DNAUC oral, dose normalized) [2]: “++” (0.1 ≤ × ≤ 0.2h · μM)
bioavailability [2]: 10 to 30%

Cc1cc(-c2cc(C(F)(F)F)ccn2)ccc1O[C@H]1O[C@H](CO)[C@@H](O)[C@H](O)[C@@H]1O [Example 5, (2R,3S,4S,5S,6R)-2-(hydroxymethyl)-6-(2-methyl-4-(4-(trifluoromethyl)pyridin-2-yl)phenoxy)tetrahydro-2H-pyran-3,4,5-triol]
HAI nM [1]: “+++” (50-200)
PK DNAUC h * uM (DNAUC oral, dose normalized) [2]: “+++” (>0.2 h · μM)
bioavailability [2]: > 30%

Cc1cc(-c2cnc(C(F)(F)F)nc2)ccc1O[C@H]1O[C@H](CO)[C@@H](O)[C@H](O)[C@@H]1O [Example 16]
HAI nM [1]: “++++” (<50)
PK DNAUC h * uM (DNAUC oral, dose normalized) [2]: “++” (0.1 ≤ × ≤ 0.2h · μM)

Cc1cc(-c2ccnc(C(F)(F)F)n2)ccc1O[C@H]1O[C@H](CO)[C@@H](O)[C@H](O)[C@@H]1O [Example 14]
HAI nM [1]: “+++” (50-200)
PK DNAUC h * uM (DNAUC oral, dose normalized) [2]: “+” (<01 h · μM)

N#Cc1cc(F)cc(-c2cc(F)c(O[C@H]3O[C@H](CO)[C@@H](O)[C@H](O)[C@@H]3O)c(C(F)(F)F)c2)c1 [Example 6]
HAI nM [1]: “++++” (<50)
PK DNAUC h * uM (DNAUC oral, dose normalized) [2]: “+” (<01 h · μM)

N#Cc1cncc(-c2cc(F)c(O[C@H]3O[C@H](CO)[C@@H](O)[C@H](O)[C@@H]3O)c(C(F)(F)F)c2)c1 [Example 38]
HAI nM [1]: “++++” (<50)
PK DNAUC h * uM (DNAUC oral, dose normalized) [2]: “+” (<01 h · μM)
